Laboratory results taken from patent publication US20120264735A1 (priority 2009, published 2012).
pIC50: −log10 of the molar value.

The compounds below were run against T1, c-Met kinase (recombinant c-Met) (Homo sapiens, UniProt P08581) (assay: In vitro kinase assay I (homogeneous time-resolved fluorescence tyrosine kinase assay)).
T1 construct: 0.27 nM recombinant c-Met
T1 sequence (P08581 25-1390): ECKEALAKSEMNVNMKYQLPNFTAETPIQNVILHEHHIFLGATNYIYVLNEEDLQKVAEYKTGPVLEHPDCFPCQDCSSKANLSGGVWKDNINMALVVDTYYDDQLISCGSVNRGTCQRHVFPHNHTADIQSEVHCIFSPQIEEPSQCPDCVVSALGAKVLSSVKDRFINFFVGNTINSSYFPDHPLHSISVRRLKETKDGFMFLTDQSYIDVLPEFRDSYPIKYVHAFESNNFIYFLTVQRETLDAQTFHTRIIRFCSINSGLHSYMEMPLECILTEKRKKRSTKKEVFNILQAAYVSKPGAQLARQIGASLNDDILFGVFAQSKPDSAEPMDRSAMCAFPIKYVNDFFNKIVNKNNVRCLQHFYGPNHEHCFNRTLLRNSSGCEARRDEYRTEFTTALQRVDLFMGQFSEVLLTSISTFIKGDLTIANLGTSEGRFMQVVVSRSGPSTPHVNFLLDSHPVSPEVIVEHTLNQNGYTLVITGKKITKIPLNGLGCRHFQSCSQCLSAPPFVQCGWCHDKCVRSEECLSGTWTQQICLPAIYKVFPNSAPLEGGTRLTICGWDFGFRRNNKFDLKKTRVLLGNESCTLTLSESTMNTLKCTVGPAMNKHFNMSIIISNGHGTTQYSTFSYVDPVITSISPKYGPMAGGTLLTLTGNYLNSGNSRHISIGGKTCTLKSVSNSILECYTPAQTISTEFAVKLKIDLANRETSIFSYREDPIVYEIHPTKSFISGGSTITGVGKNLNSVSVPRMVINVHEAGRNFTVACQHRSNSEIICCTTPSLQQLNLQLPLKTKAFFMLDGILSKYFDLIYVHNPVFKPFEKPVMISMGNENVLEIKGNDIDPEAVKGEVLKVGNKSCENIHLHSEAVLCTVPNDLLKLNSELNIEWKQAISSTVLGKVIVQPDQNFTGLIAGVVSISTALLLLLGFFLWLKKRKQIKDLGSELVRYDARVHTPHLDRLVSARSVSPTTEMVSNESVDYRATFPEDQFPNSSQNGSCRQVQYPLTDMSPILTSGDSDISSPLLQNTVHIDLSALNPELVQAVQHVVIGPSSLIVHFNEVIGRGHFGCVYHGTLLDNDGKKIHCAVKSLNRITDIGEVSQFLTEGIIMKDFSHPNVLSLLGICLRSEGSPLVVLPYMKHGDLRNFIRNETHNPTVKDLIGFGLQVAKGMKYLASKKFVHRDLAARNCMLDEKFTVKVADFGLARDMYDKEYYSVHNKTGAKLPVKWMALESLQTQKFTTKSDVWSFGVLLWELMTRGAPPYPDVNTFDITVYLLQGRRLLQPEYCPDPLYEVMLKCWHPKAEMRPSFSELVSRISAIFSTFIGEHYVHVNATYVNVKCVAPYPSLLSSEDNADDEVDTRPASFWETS
Format: biochemical
Procedure, shortened: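 Biotinylated peptide (0.5 μM) phosphorylated by 0.2 nM recombinant c-Met with 50 μM MgATP, 60 min at room temperature, pH 7.4, 5% DMSO. EDTA stop; HTRF read with Eu-anti-phosphotyrosine antibody and streptavidin-APC. IC50 from 4-parameter logistic fit.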
Work on `COCCOC(=O)Nc1cccc(Cc2nn(-c3cc(F)c(F)c(F)c3)ccc2=O)c1` [Example 503, 2-methoxyethyl (3-{[4-oxo-1-(3,4,5-trifluorophenyl)-1,4-dihydropyridazin-3-yl]methyl}phenyl)carbamate] yielded a pIC50 greater than 7.00.
Work on `CCOc1cnc(-c2cccc(Cc3nn(-c4cnn(C5CNC5)c4)ccc3=O)c2)nc1` [Example 663, 1-(1-Azetidin-3-yl-1H-pyrazol-4-yl)-3-[3-(5-ethoxypyrimidin-2-yl)benzyl]pyridazin-4(1H)-one] yielded a pIC50 greater than 7.00.
For `CCn1cc(-n2ccc(=O)c(C(C)c3cccc(-c4ncn(CC)n4)c3)n2)cn1` (single isomer, unassigned) [Example 686, 1-(1-ethyl-1H-pyrazol-4-yl)-3-{(1S or R)-1-[3-(1-ethyl-1H-1,2,4-triazol-3-yl)phenyl]ethyl} pyridazin-4(1H)-one], the pIC50 was 6.00 to 7.00.
`COCCOCCOC(=O)Nc1cccc(Cc2nn(-c3cc(F)cc(F)c3)ccc2=O)c1` [Example 608, 2-(2-methoxyethoxy)ethyl (3-{[1-(3,5-difluorophenyl)-4-oxo-1,4-dihydropyridazin-3-yl]methyl}phenyl)carbamate] gave a pIC50 greater than 7.00.
Compound `CC(C)(O)COc1cnc(-c2cccc(Cc3nn(-c4ccc(F)c(F)c4)ccc3=O)c2)nc1` [Example 360, 1-(3,4-difluorophenyl)-3-{3-[5-(2-hydroxy-2-methylpropoxy)pyrimidin-2-yl]benzyl}pyridazin-4(1H)-one] has a pIC50 greater than 7.00.
In the case of `CCC(c1cccc(-c2ncc(OC)cn2)c1)c1nn(-c2cnn(C)c2)ccc1=O` (racemic) [Example 225, rac-3-{1-[3-(5-methoxypyrimidin-2-yl)phenyl]propyl}-1-(1-methyl-1H-pyrazol-4-yl)pyridazin-4(1H)-one], the pIC50 was greater than 7.00.
Compound `Cn1cc(-n2ccc(=O)c(Cc3cccc(-c4ncc(OCC5(CO)COC5)cn4)c3)n2)cn1` [Example 268, 3-[3-(5-{[3-(hydroxymethyl)oxetan-3-yl]methoxy}pyrimidin-2-yl)benzyl]-1-(1-methyl-1H-pyrazol-4-yl)pyridazin-4(1H)-one] has a pIC50 greater than 7.00.
With `Cn1cc(-n2ccc(=O)c(Cc3cccc(NC(=O)OCCn4ccnc4)c3)n2)cn1` [Example 510, 2-(1H-Imidazol-1-yl)ethyl(3-{[1-(1-methyl-1H-pyrazol-4-yl)-4-oxo-1,4-dihydropyridazin-3-yl]methyl}phenyl)carbamate] the pIC50 was greater than 7.00.
For `Cn1cc(-n2ccc(=O)c(Cc3ccc4[nH]ncc4c3)n2)cn1` [Example 184, 3-(1H-Indazol-5-ylmethyl)-1-(1-methyl-1H-pyrazol-4-yl)pyridazin-4(1H)-one], the pIC50 was 6.00 to 7.00.
For `CCOc1cnc2ccc(C(C)c3nn(-c4cnn(CC)c4)ccc3=O)cc2c1` (single isomer, unassigned) [Example 227, 3-[(1R or S)-1-(3-ethoxyquinolin-6-yl)ethyl]-1-(1-ethyl-1H-pyrazol-4-yl)pyridazin-4(1H)-one], the pIC50 was greater than 7.00.
`Cn1cc(-n2ccc(=O)c(Cc3cccc(-c4ncc(O)cn4)c3)n2)cn1` [Example 187, 3-[3-(5-Hydroxypyrimidin-2-yl)benzyl]-1-(1-methyl-1H-pyrazol-4-yl)pyridazin-4(1H)-one] showed a pIC50 of 6.00 to 7.00.
Compound `Cn1cc(-n2ccc(=O)c(Cc3cccc(-c4ncc(O[C@@H]5CCC[C@H]5O)cn4)c3)n2)cn1` (single isomer, unassigned) [Example 378] has a pIC50 greater than 7.00.
For `CCOC(=O)Nc1cccc(Cc2nn(-c3cnn(CCN)c3)ccc2=O)c1` [Example 647, Ethyl [3-({1-[1-(2-aminoethyl)-1H-pyrazol-4-yl]-4-oxo-1,4-dihydropyridazin-3-yl}methyl)phenyl]carbamate], the pIC50 was 6.00 to 7.00.
Work on `CCn1cc(-n2ccc(=O)c(Cc3cccc(-c4ncc(OC5CN(C(=O)OC(C)(C)C)C5)cn4)c3)n2)cn1` [Example 289, tert-butyl 3-{[2-(3-{[1-(1-ethyl-1H-pyrazol-4-yl)-4-oxo-1,4-dihydropyridazin-3-yl]methyl}phenyl)pyrimidin-5-yl]oxy}azetidine-1-carboxylate] yielded a pIC50 greater than 7.00.
Compound `Cn1cc(-n2ccc(=O)c(Cc3cccc(-c4ncc(OCCN5CCOCC5)cn4)c3)n2)cn1` [Example 263, 1-(1-methyl-1H-pyrazol-4-yl)-3-{3-[5-(2-morpholin-4-ylethoxy)pyrimidin-2-yl]benzyl}pyridazin-4(1H)-one] has a pIC50 greater than 7.00.
Work on `N#Cc1cccc(-n2ccc(=O)c(Cc3cccc(NC(=O)OCC4CCOC4)c3)n2)c1` (racemic) [Example 583, rac-tetrahydrofuran-3-ylmethyl (3-{[1-(3-cyanophenyl)-4-oxo-1,4-dihydropyridazin-3-yl]methyl}phenyl)carbamate] yielded a pIC50 greater than 7.00.
`COCCCn1cnc(-c2cccc(Cc3nn(-c4cnn(C)c4)ccc3=O)c2)n1` [Example 77, 3-{3-[1-(3-methoxypropyl)-1H-1,2,4-triazol-3-yl]benzyl}-1-(1-methyl-1H-pyrazol-4-yl)pyridazin-4(1H)-one] showed a pIC50 greater than 7.00.
Compound `CC(C)COC(=O)Nc1cccc(Cc2nn(-c3cnn(C(C)C)c3)ccc2=O)c1` [Example 105, 2-methylpropyl [3-({1-[1-(1-methylethyl)-1H-pyrazol-4-yl]-4-oxo-1,4-dihydropyridazin-3-yl}methyl)phenyl]carbamate] has a pIC50 greater than 7.00.
`O=c1ccn(-c2cc(F)cc(F)c2)nc1Cc1cccc(-c2ncc(OCc3ccccc3)cn2)c1` [Example 125, 3-{3-[5-(benzyloxy)pyrimidin-2-yl]benzyl}-1-(3,5-difluorophenyl)pyridazin-4(1H)-one] showed a pIC50 greater than 7.00.
`COCCC(=O)Nc1cnc(-c2cccc(Cc3nn(-c4cnn(C)c4)ccc3=O)c2)nc1` [Example 458, 3-Methoxy-N-[2-(3-{[1-(1-methyl-1H-pyrazol-4-yl)-4-oxo-1,4-dihydropyridazin-3-yl]methyl}phenyl)pyrimidin-5-yl]propanamide] gave a pIC50 greater than 7.00.
`CCOC(=O)Nc1cccc(Cc2nn(-c3ccn(C)n3)ccc2=O)c1` [Example 25, ethyl (3-{[1-(1-methyl-1H-pyrazol-3-yl)-4-oxo-1,4-dihydropyridazin-3-yl]methyl}phenyl)carbamate] gave a pIC50 of 6.00 to 7.00.
For `CC(c1cccc(-c2ncc(OCC(C)(C)O)cn2)c1)c1nn(-c2cnn(C)c2)ccc1=O` (single isomer, unassigned) [Example 381, 3-((1R or S)-1-{3-[5-(2-hydroxy-2-methylpropoxy)pyrimidin-2-yl]phenyl}ethyl)-1-(1-methyl-1H-pyrazol-4-yl)pyridazin-4(1H)-one], the pIC50 was greater than 7.00.
Compound `Cn1cc(-n2ccc(=O)c(Cc3cccc(NC(=O)OCCCN4CCNCC4)c3)n2)cn1` [Example 626, 3-piperazin-1-ylpropyl (3-{[1-(1-methyl-1H-pyrazol-4-yl)-4-oxo-1,4-dihydropyridazin-3-yl]methyl}phenyl)carbamate] has a pIC50 greater than 7.00.
`CC(C)(O)COc1cnc(-c2cccc(Cc3nn(-c4cc(F)cc(F)c4)ccc3=O)c2)nc1` [Example 363, 1-(3,5-difluorophenyl)-3-{3-[5-(2-hydroxy-2-methylpropoxy)pyrimidin-2-yl]benzyl}pyridazin-4(1H)-one] gave a pIC50 greater than 7.00.
Work on `CC(C)CCn1cnc(-c2cccc(Cc3nn(-c4cnn(C)c4)ccc3=O)c2)n1` [Example 78, 3-{3-[1-(3-methylbutyl)-1H-1,2,4-triazol-3-yl]benzyl}-1-(1-methyl-1H-pyrazol-4-yl)pyridazin-4(1H)-one] yielded a pIC50 greater than 7.00.
With `CCOc1cnc2ccc(Cc3nn(-c4cc(F)c(F)c(F)c4)ccc3=O)cc2c1` [Example 65, 3-[(3-ethoxyquinolin-6-yl)methyl]-1-(3,4,5-trifluorophenyl)pyridazin-4(1H)-one] the pIC50 was 6.00 to 7.00.
Compound `O=C(Nc1cccc(Cc2nn(-c3cc(F)cc(F)c3)ccc2=O)c1)OCCCN1CCS(=O)(=O)CC1` [Example 522, 3-(1,1-dioxidothio-morpholin-4-yl)propyl (3-{[1-(3,5-difluorophenyl)-4-oxo-1,4-dihydropyridazin-3-yl]methyl}phenyl)carbamate] has a pIC50 greater than 7.00.
`Cn1cc(-n2ccc(=O)c(Cc3cccc(-c4ncc(CCC(C)(C)O)cn4)c3)n2)cn1` [Example 437, 3-{3-[5-(3-hydroxy-3-methylbutyl)pyrimidin-2-yl]benzyl}-1-(1-methyl-1H-pyrazol-4-yl)pyridazin-4(1H)-one] showed a pIC50 greater than 7.00.
With `Cc1nc(COc2cnc(-c3cccc(Cc4nn(-c5cnn(C)c5)ccc4=O)c3)nc2)no1` [Example 281, 3-(3-{5-[(5-methyl-1,2,4-oxadiazol-3-yl)methoxy]pyrimidin-2-yl}benzyl)-1-(1-methyl-1H-pyrazol-4-yl)pridazin-4(1H)-one] the pIC50 was greater than 7.00.
With `CCc1cnc(-c2cccc(C(C)c3nn(-c4cnn(C)c4)ccc3=O)c2)nc1` (single isomer, unassigned) [Example 236, 3-{(1S or R)-1-[3-(5-ethylpyrimidin-2-yl)phenyl]ethyl}-1-(1-methyl-1H-pyrazol-4-yl)pyridazin-4(1H)-one] the pIC50 was greater than 7.00.
`Cn1cc(-n2ccc(=O)c(Cc3cccc(NC(=O)OCC4CCOCC4)c3)n2)cn1` [Example 541, tetrahydro-2H-pyran-4-ylmethyl (3-{[1-(1-methyl-1H-pyrazol-4-yl)-4-oxo-1,4-dihydropyridazin-3-yl]methyl}phenyl)carbamate] was tested, and the pIC50 was greater than 7.00.
Compound `CCCOC(=O)Nc1cccc(Cc2nn(-c3cc(F)cc(F)c3)ccc2=O)c1` [Example 590, propyl (3-{[1-(3,5-difluorophenyl)-4-oxo-1,4-dihydropyridazin-3-yl]methyl}phenyl)carbamate] has a pIC50 greater than 7.00.
With `O=C(Nc1cccc(Cc2nn(-c3cc(F)cc(F)c3)ccc2=O)c1)OCCN1CCCC1=O` [Example 592, 2-(2-oxopyrrolidin-1-yl)ethyl (3-{[1-(3,5-difluorophenyl)-4-oxo-1,4-dihydropyridazin-3-yl]methyl}phenyl)carbamate] the pIC50 was greater than 7.00.
Compound `Cn1cc(-n2ccc(=O)c(Cc3cccc(-c4ncc(-c5ccc(C#N)nc5)cn4)c3)n2)cn1` [Example 413, 5-[2-(3-{[1-(1-methyl-1H-pyrazol-4-yl)-4-oxo-1,4-dihydropyrida-zin-3-yl]methyl}phenyl)pyrimidin-5-yl]pyridine-2-carbonitrile] has a pIC50 greater than 7.00.
